“Also recorded” adds a separate entry of the source.
Assays:
ADAM10 [1] = molecular target: T1, ADAM10 (Homo sapiens, UniProt O14672); type: cell-based
ADAM10 [2] = molecular target: T1, ADAM10; type: cell-based; remark: listed apart in the source
ADAM10 [3] = settings: cited from earlier work
ADAM10 [4] = molecular target: T1, ADAM10; type: cell-based; remark: listed apart in the source
[5] = system: Human pulmonary artery endothelial cells (HPAECs); type: cell-based
ADAM10 [6] = molecular target: T1, ADAM10; type: cell-based; remark: listed apart in the source
A431 keratinocytes = type: cell-based
S. aureus strain Newman = system: S. aureus strain Newman; parameters: species or system Staphylococcus aureus; settings: in vivo, ip
A549 cells = type: cell-based, human
BALB/c mice = settings: mouse, in vivo
rabbit red cells = type: cell-based
S. aureus Newman = system: S. aureus Newman; parameters: species or system Staphylococcus aureus; settings: in vivo
S. aureus USA300/LAC = system: S. aureus USA300/LAC; parameters: species or system Staphylococcus aureus; settings: in vivo
ADAM10 [7] = molecular target: T1, ADAM10; type: cell-based; remark: listed apart in the source
C57BL/6J mice = settings: mouse, in vivo
ADAM10 [8] = molecular target: T1, ADAM10; type: cell-based; remark: listed apart in the source

T1 sequence (O14672 214-748 limits assumed): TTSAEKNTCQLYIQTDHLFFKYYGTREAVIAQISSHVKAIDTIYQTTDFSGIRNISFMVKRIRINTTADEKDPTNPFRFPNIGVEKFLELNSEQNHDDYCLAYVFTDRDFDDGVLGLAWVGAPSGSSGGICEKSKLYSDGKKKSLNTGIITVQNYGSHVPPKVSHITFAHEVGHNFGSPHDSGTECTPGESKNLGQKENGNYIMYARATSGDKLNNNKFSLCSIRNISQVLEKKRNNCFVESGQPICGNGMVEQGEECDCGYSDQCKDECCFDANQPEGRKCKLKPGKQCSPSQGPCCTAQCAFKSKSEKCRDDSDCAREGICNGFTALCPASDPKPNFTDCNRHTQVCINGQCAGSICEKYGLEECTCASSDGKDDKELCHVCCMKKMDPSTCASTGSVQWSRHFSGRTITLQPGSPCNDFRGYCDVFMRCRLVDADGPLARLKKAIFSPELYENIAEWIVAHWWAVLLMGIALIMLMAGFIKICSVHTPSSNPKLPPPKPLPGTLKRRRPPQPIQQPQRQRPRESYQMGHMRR

Methyl-β-cyclodextrin
Hla-induced E-cadherin cleavage (ADAM10 [1]): abrogated metalloprotease activation and E-cadherin cleavage
Hla-induced metalloprotease activation (ADAM10 [2]): abrogated metalloprotease activation

C[C@H](CCC(=O)O)C[C@H](C)C[C@H](C)C(=O)/C=C(\O)[C@H](C)C[C@H](C)C/C=C/[C@@H](C)[C@@H](O)[C@@H](C)[C@@H](O)C[C@@H]1CC[C@@](C)([C@H]2CC[C@@](C)([C@@H](C)O)O2)O1 [Ionomycin]
induction of ADAM10 metalloprotease activity (ADAM10 [3]): potently induces the metalloprotease activity of ADAM10
E-cadherin cleavage induced by agent alone (ADAM10 [1]): stimulating E-cadherin cleavage; also recorded: E-cadherin CTFs were generated; also recorded: enhancing cleavage

N—(R)-[2-hydroxyaminocarbonyl)methyl]-4-methylpentanoyl-L-napthylalanyl-L-alanine, 2-aminoethyl amide [TAPI-1]
Hla-induced E-cadherin cleavage (Western blot) (ADAM10 [1]): impaired Hla-induced E-cadherin cleavage
surface expression of E-cadherin after Hla (immunofluorescence) (ADAM10 [1]): preserved surface expression of E-cadherin
Hla-induced VE-cadherin cleavage (ADAM10 [4]): prevented VE-cadherin cleavage
barrier function after Hla (ECIS) [5]: maintenance of barrier function; also recorded: did not result in loss of barrier function

CNC(=O)[C@@H](NC(=O)[C@H](CCCc1ccccc1)[C@H](C)N(O)C=O)C(C)(C)C [GI254023X]
PLY-induced E-cadherin cleavage (ADAM10 [6]): prevented PLY-induced E-cadherin cleavage
Hla-induced E-cadherin cleavage (ADAM10 [1]): nearly abrogated Hla-induced E-cadherin cleavage
epithelial barrier function upon toxin treatment (ECIS) (A431 keratinocytes): preservation of full-length E-cadherin expression and epithelial barrier function
protection against lethal S. aureus pneumonia (mortality curves) (S. aureus strain Newman): protected from rapidly lethal S. aureus pneumonia, displaying an increase in time to death and survival among some animals; also recorded: protected against lethal pneumonia
toxin binding and oligomerization on the surface of A549 cells (A549 cells): markedly impaired toxin binding and subsequent oligomerization; also recorded: impaired toxin binding and oligomerization on A549 cells
vascular integrity / Evans blue dye extravasation (BALB/c mice): enhanced vascular integrity, manifest by limited dye extravasation
Hla-induced hemolysis (rabbit red cells): blunted hemolysis
survival of lethal challenge (S. aureus Newman): all experimental animals succumbed to the lethal challenge
appearance of illness (S. aureus Newman; 200 mg/kg): less ill in appearance
time-to-death (S. aureus Newman; iv, 200 mg/kg): prolongation of time-to-death
abscess size (S. aureus USA300/LAC): reduction in abscess size
dermonecrotic skin lesions (S. aureus USA300/LAC): did not demonstrate dermonecrotic skin lesions
skin breakdown (dermonecrosis) over the site of infection (S. aureus USA300/LAC): completely prevented skin breakdown over the site of infection
Hla-induced VE-cadherin cleavage (ADAM10 [4]): prevented VE-cadherin cleavage
Hla-induced loss of E-cadherin expression and disruption of cell junctions (ADAM10 [7]): could be prevented; also recorded: is inhibited
accumulation of cells and proteinaceous edema in the alveolar space (BAL cell count, protein) (C57BL/6J mice): reduced the accumulation of both cells and proteinaceous edema in the alveolar space; also recorded: reduced alveolar exudates; also recorded: prevents Hla-induced lung epithelial barrier disruption in vivo
E-cadherin cleavage in response to Hla treatment in mice (C57BL/6J mice; ip): prevented E-cadherin cleavage in response to Hla treatment
Hla-mediated barrier disruption (ECIS) [5]: complete protection of HPAECs from Hla-mediated barrier disruption
full-length E-cadherin expression upon toxin treatment (ADAM10 [8]): preservation of full-length E-cadherin expression
